From patent US5756510A, “Benzamide analogs useful as PARP (ADP-ribosyltransferase, ADPRT) DNA repair enzyme inhibitors” (Newcastle University Ventures Limited, priority 1994, dated 1998)
Where two headings read alike, the source gives them in different places.

Tests used:
PARP = biological target: T1, PARP (Mus musculus, UniProt P11103); experiment: PARP inhibition assay ([32P]-NAD incorporation into TCA-precipitated poly(ADP-ribose) in permeabilised L1210 cells, oligonucleotide activated); format: biochemical, L1210 murine leukaemia cells
T1 construct: endogenous in cells; host or cells: L1210 murine leukaemia cells, permeabilised by hypotonic buffer and cold shock
Excerpt: In principle, the PARP assay used relies upon activating endogenous PARP (as hereinafter described) in cells containing exogenous [^32 P]-NAD^+ introduced therein by suspending the cells in a solution of [^32 P]-NAD^+ to which they have been rendered permeable in an initial pretreatment step. The poly(ADP-ribose) which is then synthesised by the enzyme can be precipitated by trichloracetic acid (TCA) and the amount of radio-labelled ^32 p incorporated therein measured, e.g. using a scintillation counter, to give a measure of the activity of the PARP under the particular conditions of the experiment. By repeating the experiment following the same procedure, and under the same conditions, in the presence of each compound to be tested the reduction in enzyme activity, representative of the inhibitory effect of the test compound, can then be ascertained from the reduction, if any, of the amount of [^32 P] measured in the TCA precipitated poly(ADP-ribose).
Thus, with a range of different compounds a set of comparative values for inhibitory activity can be obtained.
In practice, L1210 murine leukaemia cells were used as the source of the PARP enzyme after being rendered permeable to exogenous [^32 P]NAD by exposure to hypotonic buffer and cold shock. […] This oligonucleotide sequence snaps back on itself to form a double-stranded molecule with a single blunt end and provides an effective substrate for activation of PARP.
The experimental protocol adopted, in which a synthetic oligonucleotide as mentioned above is introduced as a specific activator of PARP, discriminates between PARP and other mono-ADP-ribosyltransferases in the cells.
The oligonucleotide having the palindromic sequence […], synthesised by conventional means, was vacuum dried and stored as pellets in a freezer. Before use, it was made up to 200 μg/ml in 10 mM Tris/HCl, pH 7.8, with each pellet being dissolved completely in […] of buffer. The solution was then heated to 60° C. in a water bath for 15 minutes, and allowed to cool slowly to ensure correct reannealing. After adding 9.5 ml of buffer, the concentration was checked by measuring the optical density of a diluted sample at 260 nm. The main solution was then diluted to a concentration of 200 μg/ml and stored in 500 μl aliquots in a freezer, ready for use.
The L1210 cells used as the source of the PARP enzyme were maintained as a suspension culture in RPMI medium+10% foetal bovine serum+glutamine and antibiotics (penicillin and streptomycin). HEPES and sodium bicarbonate were also added, and the cells were seeded in 100 ml of medium such that there would be a concentration of approximately 8×10^5 /ml at the time of carrying out an assay.
The solubility of the compound was then checked by adding a quantity of the DMSO solution to a quantity of the isotonic buffer, in the required final proportions that were to be used in carrying out the assay, and after an interval the solution was examined under a microscope for any signs of crystals forming.
A desired quantity of the cells, ascertained by counting with a haemocytometer, was then centrifuged (1500 rpm in a "Europa" model 24M centrifuge for 5 minutes), the supernatant removed, and the pellets obtained were resuspended in 20 ml Dul A at 4° C. before centrifuging again at 1500 rpm and 4° C. After again removing the supernatant, the cells were resuspended at a concentration of 3×10^7 cells/ml in ice cold hypotonic buffer and left for 30 minutes on ice. Nine volumes were then added of ice cold isotonic buffer, and the cells, now rendered permeable to exogenous NAD^+, were then used within the next hour for carrying out an assay.

[1] = solubility check of test compound in assay buffer (DMSO solution added to isotonic buffer, microscope); format: physicochemical
Excerpt: The compounds being tested were generally made up as a concentrated solution in DMSO (Dimethyl sulphoxide). The solubility of the compound was then checked by adding a quantity of the DMSO solution to a quantity of the isotonic buffer, in the required final proportions that were to be used in carrying out the assay, and after an interval the solution was examined under a microscope for any signs of crystals forming.

L1210 cells [2] = experiment: clonogenic survival assay, gamma ray irradiation; format: cell-based, murine; details: 200 μM
Protocol: In other clonogenic survival assays gamma ray irradiation was used to damage the cells. Typically, L1210 cells (3 ml, 4×10^3 /ml in plastic bijoux bottles) were irradiated at 4° C. with varying doses of gamma rays in the presence or absence of 10 mM 3AB or 200 μM NU1057 and a final concentration of 2% DMSO. The cells were then incubated at 37° C. for 2 hours in the continued presence or absence of PARP inhibitor prior to seeding for colony formation.

L1210 cells [3] = experiment: growth inhibition assay, alone or with temozolomide; format: cell-based, murine; details: Mus musculus, L1210, 48 h
Protocol: (§1) Again using cultures of the murine leukaemia L1210 cell line, growth inhibition experiments were carried out to assess the cytostatic effects of the compounds and clonogenic survival assays were performed to assess cytotoxicity, especially in relation to use of the compounds in conjunction with DNA damaging cytotoxic agents such as cytotoxic antitumour drugs or high energy radiation.
At this time one set of replicates would be counted using a Coulter counter (N0), and 48 hours later the remaining samples would be counted (N1). The percentage (%) growth inhibition of drug-treated samples could then be estimated. In drug combination experiments, where evidence of synergistic effects on cell growth or clonogenicity was being sought, a single, fixed concentration of a cytotoxic drug sample, e.g. temozolomide, would be taken as the control value.

L1210 cells [4] = experiment: clonogenic survival assay with temozolomide (TM); details: 16 hours, ± S.E.
Protocol: as §1
After 7-10 days colonies were stained with 0.5 mg/ml MTT and counted by eye on a gridded light box. Survival curves were plotted and typical DEF10 values obtained are hereinafter given in Table II (DEF10 being defined as the ratio of the concentration of TM that reduces survival to 10% divided by the concentration of TM that reduces survival to 10% in the presence of a fixed concentration of PARP inhibitor). Each DEF10 value in Table II represents the average ratio±S.E. (standard error) derived from the averaged 10% survival for TM alone (675±31 μM from 22 independent survival curves) divided by individual 10% survival values from at least 3 independent survival curves performed in the presence of a fixed concentration of inhibitor.
For NU1025 maximal potentiation of cytotoxicity was obtained by a concentration in the range of 50-100 μM, and was significant at doses as low as 10 μM.

in vitro = details: mouse, l1210 cells
Protocol: as §1

[5] = system: DNA strand breaks in L1210 cells; experiment: DNA strand break assay (alkaline elution); format: cell-based, murine
Protocol: as §1
All the compounds were tested for their ability to produce strand breaks when used alone.

[6] = 10 μM, read-out: % Inhibition (PARP)
[7] = 30 μM, read-out: % Inhibition (PARP)

T1 sequence (P11103 whole entry): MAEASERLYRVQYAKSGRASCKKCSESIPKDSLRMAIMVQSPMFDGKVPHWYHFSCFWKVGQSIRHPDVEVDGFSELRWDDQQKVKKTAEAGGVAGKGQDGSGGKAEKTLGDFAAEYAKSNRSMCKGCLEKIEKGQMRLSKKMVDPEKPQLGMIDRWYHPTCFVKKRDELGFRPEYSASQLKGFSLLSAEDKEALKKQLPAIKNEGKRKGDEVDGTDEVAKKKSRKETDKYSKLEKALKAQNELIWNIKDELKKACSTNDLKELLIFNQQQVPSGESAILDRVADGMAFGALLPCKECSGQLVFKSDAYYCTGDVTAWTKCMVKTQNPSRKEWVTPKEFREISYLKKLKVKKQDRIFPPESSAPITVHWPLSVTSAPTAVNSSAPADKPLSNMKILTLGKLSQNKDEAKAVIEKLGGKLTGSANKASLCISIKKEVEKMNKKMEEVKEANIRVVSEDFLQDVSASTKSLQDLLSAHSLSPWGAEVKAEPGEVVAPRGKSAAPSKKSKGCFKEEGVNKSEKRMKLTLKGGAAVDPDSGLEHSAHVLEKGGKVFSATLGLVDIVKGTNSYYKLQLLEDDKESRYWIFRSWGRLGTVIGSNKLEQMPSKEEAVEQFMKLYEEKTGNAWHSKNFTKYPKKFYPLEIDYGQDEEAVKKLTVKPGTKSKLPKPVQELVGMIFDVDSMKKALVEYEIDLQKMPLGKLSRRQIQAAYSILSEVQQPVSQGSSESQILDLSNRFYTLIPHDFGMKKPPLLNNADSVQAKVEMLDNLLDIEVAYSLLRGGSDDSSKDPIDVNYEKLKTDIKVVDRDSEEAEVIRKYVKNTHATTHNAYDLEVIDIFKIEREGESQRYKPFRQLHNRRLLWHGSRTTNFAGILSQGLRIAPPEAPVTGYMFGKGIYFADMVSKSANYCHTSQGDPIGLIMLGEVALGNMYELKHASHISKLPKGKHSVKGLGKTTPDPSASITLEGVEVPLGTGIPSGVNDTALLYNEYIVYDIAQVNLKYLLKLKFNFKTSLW

SMILES | inhibition at 10 µM (PARP; [6]) [%] | insolubility at assay concentration ([1]; 30 μM) | insolubility at assay concentration ([1]; 100 μM) | other results
NC(=O)c1cccc(OCCCCCCCCn2cnc3c(Cl)ncnc32)c1 [NU1027, 3-[8-(6-chloropurin-9-yl)octyloxy]benzamide] | 30 | insol. | insol. | 
O=c1[nH]c(-c2ccc([N+](=O)[O-])cc2)nc2c(O)cccc12 [NU1057, 8-Hydroxy-2-(4-nitrophenyl)quinazolin-4-one] | 92 |  |  | IC50 (PARP): 0.00023 mM; PARP inhibitory activity in words (PARP): potent PARP inhibitors; potentiation of gamma ray cytotoxicity in words (L1210 cells [2]): significant potentiation of gamma ray cytotoxicity; DEF10 (gamma ray cytotoxicity) (L1210 cells [2]; 2% DMSO, 2 hours at 37° C.): 1.1
NC(=O)c1cccc(OC/C=C/c2ccccc2)c1 [NU1050, 3-(Cinnamyloxy)benzamide] | 23 | insol. | insol. | 
NC(=O)c1cccc(OCc2ccccc2[N+](=O)[O-])c1 [NU1042, 3-(2-Nitrobenzyloxy)benzamide] |  | insol. | insol. | insolubility at assay concentration ([1]; 10 μM): insol.
CCCCCCOc1cccc(C(N)=O)c1 [NU1043, 3-hexyloxybenzamide] | 15 |  | insol. | inhibition at 30 µM (PARP; [7]): 39%
NC(=O)c1ccccc1 [BENZAMIDE, benzamide] |  |  |  | IC50 (L1210 cells [3]; read-out: IC50 INHIBITOR + 100 μM TM (growth inhibition)): 0.84 ± 0.12 mM; IC50 (L1210 cells [3]; read-out: IC50 INHIBITOR ALONE (growth inhibition)): 2.5 ± 0.3 mM; DEF10 (TM) (L1210 cells [4]; 1 mM inhibitor): 4.0 ± 0.7; DEF10 (TM) (L1210 cells [4]; 3 mM inhibitor): 6.9 ± 0.2; CC50 at 24 h (in vitro): 6 ± 1.5 mM; concentration above which strand breakage with TM increases significantly ([5]; 150 μM TM, 1 hour): above 3 mM; effect on DNA strand break levels, compound alone ([5]; 20 mM, 24 hour incubation): no significant effect on DNA strand break levels
CCCCCCCCOc1cccc(C(N)=O)c1 [NU1045, 3-octyloxybenzamide] |  | insol. | insol. | insolubility at assay concentration ([1]; 10 μM): insol.
CCCCCCCOc1cccc(C(N)=O)c1 [NU1044, 3-heptyloxybenzamide] | 26 | insol. | insol. | 
NC(=O)c1cccc(OCc2cccc([N+](=O)[O-])c2)c1 [NU1017, 3-(3-Nitrobenzyloxy)benzamide] | 21 |  | insol. | inhibition at 30 µM (PARP; [7]): 40%
COC(=O)c1ccc(COc2cccc(C(N)=O)c2)cc1 [NU1041, 3-(4-carboxymethylbenzyloxy)benzamide] |  | insol. | insol. | insolubility at assay concentration ([1]; 10 μM): insol.
NC(=O)c1cccc(OCC2CCCCC2)c1 [NU1008, 3-(cyclohexylmethyloxy)benzamide] |  | insol. | insol. | PARP inhibitory activity in words (PARP): some PARP inhibitory activity; insolubility at assay concentration ([1]; 10 μM): insol.

Further lines, with some results ahead:

inhibition at 10 µM (PARP; [6]) [%] | insolubility at assay concentration ([1]; 30 μM) | insolubility at assay concentration ([1]; 100 μM) | SMILES | other results
33 | insol. | insol. | N#Cc1ccc(COc2cccc(C(N)=O)c2)cc1 [NU1037, 3-(4-cyanobenzyloxy)benzamide] | 
26 | insol. | insol. | NC(=O)c1cccc(OCc2ccc([N+](=O)[O-])cc2)c1 [NU1007, 3-(4-nitrobenzyloxy)benzamide] | 
 |  | insol. | NC(=O)c1cccc(OCc2ccc(F)cc2)c1 [NU1015, 3-(4-Fluorobenzyloxy)benzamide] | inhibition at 10 µM (PARP; read-out: % Inhibition (PARP), 10 μM): 20%; inhibition at 30 µM (PARP; read-out: % Inhibition (PARP), 30 μM): 52%
58 |  | insol. | COc1ccc(COc2cccc(C(N)=O)c2)cc1 [NU1006, 3-(4-methoxybenzyloxy)benzamide] | inhibition at 30 µM (PARP; [7]): 74%
23 |  | insol. | NC(=O)c1cccc(OCc2ccc(Br)cc2)c1 [NU1014, 3-(4-Bromobenzyloxy)benzamide] | inhibition at 30 µM (PARP; [7]): 36%
